According to US8106080B2, “Compositions and methods for enhancing nitric oxide delivery” (priority 2006, dated 2012):
Like-named read-outs stand apart in the source and are kept apart here. Marks after values point to notes of the source that are not given here.

What was measured:
[1] = test system: EDL muscles from normal C57Black/6 mice; test: DNA synthesis ([3H]-thymidine) in whole-muscle EDL culture, normal mice; format: cell-based; details: NO donor alone; whole mouse EDL-muscle cultures; FIG. 2
Description: The proposed model of satellite cell activation as a function of NO is supported by a study of the effect of two known NO donor compounds-ISDN and DPTA-on whole mouse EDL-muscle cultures (FIG. 2), which studies were performed using in vitro methods described below. Results are reported in dpm (“disintegrations per minute”) per amount of DNA (here μg). […] In all cases, each sample was assayed in duplicate for counts, and in triplicate for DNA content (micrograms), the latter according to a standard curve of 5 or more standard concentrations that was established with a regression line having r^2 in the linear regression analysis greater than 0.97 at each assay.
Extensor digitorum longus (EDL) muscles were dissected cleanly and carefully from normal C57Black/6 mice (8 weeks old) without stretching or trauma that could easily activate satellite cells. Each muscle was aligned radially in one well of a 6-well Flex II culture plate (Flexcell International, N.C., USA), and the tendons were pinned so the muscle was at resting length. […]
(§1) DNA was isolated from the tissues. DNA synthesis was assayed by scintillation counting in Ready Safe scintillation cocktail (Beckman), and the concentration of DNA in each sample was assayed using a fluorescence assay (calibrated against a standard curve). The data were calculated as DNA synthesis per microgram of DNA in each sample.

[2] = test system: EDL muscles from old (12-month-old) normal mice; test: DNA synthesis in whole-muscle EDL culture from 12-month-old mice; format: cell-based, mouse; details: MyoNovin higher dose of 2, L-NAME both doses (very high), FIG. 19
Description: […] Each muscle was aligned radially in one well of a 6-well Flex II culture plate (Flexcell International, N.C., USA), and the tendons were pinned so the muscle was at resting length. The muscles were incubated in growth medium ([…], DMEM, containing 15% v/v horse serum (HyClone Laboratories Inc.) and 2% v/v chick embryo extract (ICN Biomedicals) at 37° C. in 5% CO2). Muscles in the wells were treated with or without an NO donor. [^3H]-Thymidine was added to the medium at the beginning of treatment, and cultures were maintained for 24 hours to allow incorporation of the isotope into new DNA. At the end of 24 hours, muscles were removed from wells, tendons were trimmed away, and the muscles were frozen at −20° C. for future analysis.
as §1
Data from an experiment on EDL muscles in culture, isolated from old (12-month-old) normal […] mice were conducted using the method described above for methocarbomol and ISDN.
In this experiment, muscles were treated with MyoNovin (2 doses) or the NOS inhibitor, L-NAME (2 doses).

mdx dystrophic mice = test: DNA synthesis in back muscle after topical application, mdx mice; format: in vivo, mouse; details: transdermal, FIG. 18
Text: Ointments were applied according to the following procedure. • 1. Animals were anesthetized with isoflurane and the mid-dorsal skin (on the back) was shaved, washed with soap and water, and air dried. • 2. The ointment was applied to the sterile pad on an adhesive bandage. Control bandages were coated with the ointment base only. After topical application in which the bandages were applied to the shaved back region, bandages were wrapped with medical adhesive. The animals had the Elizabethan collar fitted while under anesthesia, to prevent their later chewing at the adhesive tape. Eyes were irrigated regularly, as animals were unable to groom well while wearing the cone. • 3. Animals were treated for a total of 24 hours. There were no apparent effects of treatment on behaviour. • 4. Two hours before euthanasia, the mice were injected with 2 μCi per gram body weight of tritiated-thymidine (intra peritoneal) to label DNA synthesis. • 5. At 24 hours from the start of ointment application, animals were euthanized using cervical dislocation under anesthesia provided by pentobarbital injection. […] DNA synthesis was assayed by scintillation counting in Ready Safe scintillation cocktail (Beckman), and the concentration of DNA in each sample was assayed using a fluorescence assay (calibrated against a standard curve). The data were calculated as DNA synthesis per microgram of DNA in each sample. […]

[3] = test system: back muscle tissue homogenate; test: EPR assay of NO release, back muscle homogenate; format: biochemical, mouse
Description: (§2) In the experiment liver and back muscle tissue taken from C57Black/6 mice were homogenized in ice-cold sucrose buffer. A small amount of MyoNovin was dissolved in dimethylsulfoxide and added to the tissue homogenates. An NO spin-trap molecule N-Methyl-D-glucamine dithiocarbamate (MGD) was added to the homogenate-MyoNovin mixture as a stable iron complex [10 μl of 50 mM MGD in saline; (containing MGD at 50 mM and Fe^2+ at 10 mM)] in order to trap any NO released from the tissue homogenate. The entire homogenate mixture plus NO spin-trap solution was then incubated for 1 hour at 37° C. After incubation, a sample of homogenate (16 μl) was loaded into a quartz capillary tube for determination of the EPR spectrum. EPR spectra were then obtained using a Bruker EMXEPR spectrometer (Bruker, Co., Billerica, Mass.) at room temperature (25° C.). The instrument settings were: 9.25 GHz microwave frequency; 100 kHz modulation frequency; 20 mW microwave power, 4 G modulation amplitude, 40 ms time constant, 42 s scan time, and 100 Gauss scan range, and 3410 G center field.
(§3) FIG. 20 is a compilation of the spectra obtained. Curve A represents a blank control sample (the homogenate and NO spin-trap for the EPR assay, without the addition of MyoNovin). Curve B is an NO standard (homogenate and NO spin-trap for the EPR assay, bubbled with NO gas). […]

liver tissue homogenate = test: EPR assay of NO release, liver homogenate; format: biochemical, mouse; details: MGD spin-trap, 1 hour at 37° C., FIG. 20
Description: as §2, §3

[4] = 1% methocarbamol, 0.2% ISDN ointment, topical 24 h, FIG. 7
[5] = back muscle, topical ointment on back, 24 h, DNA synthesis per microgram of DNA
[6] = gut (positive control tissue), topical ointment on back, 24 h, per microgram of DNA
[7] = heart (negative control tissue), topical ointment on back, 24 h, per microgram of DNA
[8] = quadriceps, topical ointment on back, 24 h, DNA synthesis per microgram of DNA
[9] = 0.25% carisoprodol, 1% DETA, topical, FIG. 8

Compound: COc1ccccc1OCC(O)COC(N)=O (stereo not shown) [MC, methocarbamol]
- DNA synthesis in back muscle (in words) (normal C57Black/6 mice; [4]): increase in DNA synthesis
- DNA synthesis, Back Muscle, Mean (normal C57Black/6 mice; back muscle, mean of experiments, outliers (*) excluded, MC/ISDN mean covers samples (a) and (b)): 427.5
- DNA synthesis, Back Muscle, Experiment 1 (normal C57Black/6 mice; [5]): 430.5
- DNA synthesis, Back Muscle, Experiment 2 (normal C57Black/6 mice; [5]): 734*
- DNA synthesis, Back Muscle, Experiment 3 (normal C57Black/6 mice; [5]): 422.7
- DNA synthesis, Back Muscle, Experiment 4 (normal C57Black/6 mice; [5]): 429.43
- DNA synthesis, Gut, Experiment 2 (normal C57Black/6 mice; [6]): 123
- DNA synthesis, Gut, Experiment 3 (normal C57Black/6 mice; [6]): 239.2
- DNA synthesis, Gut, Experiment 4 (normal C57Black/6 mice; [6]): 225.9
- DNA synthesis, Gut, Mean (normal C57Black/6 mice; gut, mean of experiments, MC/ISDN mean covers samples (a) and (b)): 196.0
- DNA synthesis, Heart, Experiment 2 (normal C57Black/6 mice; [7]): 186
- DNA synthesis, Heart, Experiment 3 (normal C57Black/6 mice; [7]): 221.3
- DNA synthesis, Heart, Experiment 4 (normal C57Black/6 mice; [7]): 240.76
- DNA synthesis, Heart, Mean (normal C57Black/6 mice; heart, mean of experiments, MC/ISDN mean covers samples (a) and (b)): 216.0
- DNA synthesis, Quadriceps, Mean (normal C57Black/6 mice; quadriceps, mean of experiments, MC/ISDN mean covers samples (a) and (b)): 456.3
- DNA synthesis, Quadriceps, Experiment 1 (normal C57Black/6 mice; [8]): 507
- DNA synthesis, Quadriceps, Experiment 2 (normal C57Black/6 mice; [8]): 573
- DNA synthesis, Quadriceps, Experiment 3 (normal C57Black/6 mice; [8]): 404.1
- DNA synthesis, Quadriceps, Experiment 4 (normal C57Black/6 mice; [8]): 340.9

Compound: NCCCN(CCCN)/[N+]([O-])=N/O [DPTA, dipropylenetriamine-NONOate]
- DNA synthesis (3H-thymidine incorporation) compared to a control muscle [1]: stimulate an increase in DNA synthesis

Compound: NCCN(CCN)/[N+]([O-])=N/O [DETA, diethylenetriamine-NONOate]
- DNA synthesis in back muscle (in words) (normal C57Black/6 mice; [9]): induce increased DNA synthesis
- DNA synthesis in quadriceps (in words) (normal C57Black/6 mice; [9]): induce increased DNA synthesis

Compound: COC(=O)[C@@H](N)CCCNC(=N)N[N+](=O)[O-] [L-NAME, L-nitro-arginine methyl ester]
- DNA synthesis in EDL muscles in culture [2]: decreased DNA synthesis

Compound: CCCC(C)(COC(N)=O)COC(=O)NC(C)C (stereo not shown) [carisoprodol]
- DNA synthesis in back muscle (in words) (normal C57Black/6 mice; [9]): induce increased DNA synthesis
- DNA synthesis in quadriceps (in words) (normal C57Black/6 mice; [9]): induce increased DNA synthesis

Compound: O=[N+]([O-])O[C@H]1CO[C@H]2[C@@H]1OC[C@H]2O[N+](=O)[O-] [ISDN, isosorbide dinitrate]
- DNA synthesis in back muscle (in words) (normal C57Black/6 mice; [4]): increase in DNA synthesis
- DNA synthesis (3H-thymidine incorporation) compared to a control muscle [1]: stimulate an increase in DNA synthesis

Compound: COc1ccccc1OCC(CO[N+](=O)[O-])O[N+](=O)[O-] (stereo not shown) [MyoNovin, 1,2-di-O-nitro-3(o-methoxyphenoxy)-propanediol]
- DNA synthesis in back muscle compared to the control (mdx dystrophic mice): decreased
- side effects to animal behaviour, appearance or weight (normal C57Black/6 mice; transdermal MyoNovin, 24 h, normal mice): no apparent side effects
- increase in muscle cell proliferation (DNA synthesis) (normal C57Black/6 mice; transdermal, over a 24-hour period, normal mice, FIG. 17): 37-39%
- DNA synthesis in EDL muscles in culture [2]: increased DNA synthesis
- NO release (EPR) ([3]; back muscle homogenate, MGD spin-trap, 1 hour at 37° C., FIG. 20): strong release of NO
- time-course of NO release ([3]; back muscle homogenates, FIG. 21): more than two hours
- NO release (EPR) (liver tissue homogenate): strong release of NO
